Results: patent US6150126A, “Daphnia reproductive bioassay for testing toxicity of aqueous samples and presence of an endocrine disrupter” (Wisconsin Alumni Research Foundation, priority 1998, dated 2000)
Where two headings read alike, the source gives them in different places.

Key:
[1] = test system: vertebrate systems; conditions: cited from earlier work
[2] = test system: Daphnia; conditions: in vivo, cited from earlier work
[3] = test system: Daphnia galeata mendotae (CDF-1 clone); conditions: in vivo
[4] = test system: Daphnia carinata; conditions: in vivo; cited from earlier work
[5] = test system: Daphnia galeata mendotae Wingra CDF-1 clone; conditions: in vivo
[6] = test system: retinoid X receptors; conditions: cited from earlier work
[7] = test system: Daphnia; conditions: in vivo; cited from earlier work
[8] = test system: Daphnia; conditions: in vivo; cited from earlier work; remark: listed apart in the source
[9] = test system: Daphnia; conditions: in vivo, 48 h
[10] = test system: fish, mammals and birds; conditions: cited from earlier work
[11] = test system: Daphnia galeata-mendotae (clone CDF-1); conditions: in vivo
[12] = test system: Daphnia; conditions: in vivo; cited from earlier work; remark: listed apart in the source
[13] = test system: D. magna; conditions: daphnia, in vivo; cited from earlier work
[14] = test system: D. magna; conditions: daphnia, in vivo, cited from earlier work

Compound: O=S1OCC2C(CO1)C1(Cl)C(Cl)=C(Cl)C2(Cl)C1(Cl)Cl (stereo not drawn) [Endosulfan, endosulfan]
- Estrogenicity [1]: weakly estrogenic
- Lowest concentration with reported morphological changes ([2]; daphnia): 0.1 μgL^-1
- Concentration affecting Daphnia population growth [2]: about 120 ppb
- Concentration reducing filtration and assimilation rates [2]: 440-600 ppb
- Adult survival or clutch size, effect [3]: Neither insecticide significantly affected adult survival or clutch size
- Morphological abnormalities [3]: Neither insecticide caused morphological abnormalities
- Sex ratio, effect [3]: No endosulfan effect was observed
- Concentrations reducing body length and weight, egg mass and brood size [4]: 40-160 ppb
- Effect versus controls (sex ratio, males) [5]: a tendency for a reduction of males

Compound: COC(C)(C)CCC[C@H](C)C/C=C/C(C)=C/C(=O)OC(C)C (racemic) [methoprene]
- Gene transcription in mammals via retinoid X receptors [6]: can stimulate gene transcription in mammals by activating retinoid X receptors

Compound: ClC1=C(Cl)[C@]2(Cl)[C@@H]3[C@@H]4C[C@@H]([C@H]5O[C@@H]45)[C@@H]3[C@@]1(Cl)C2(Cl)Cl [Dieldrin, dieldrin]
- Estrogenicity [1]: weakly estrogenic
- Effect on sex ratio [7]: no effect of dieldrin on sex ratio
- Concentration of no effect on sex ratio / above which sex ratio is reduced ([3]; daphnia): about 30 ppb
- X intercept of regression line of sex ratio index vs log dieldrin ([3]; daphnia): 31 ppb
- Adult survival or clutch size, effect [3]: Neither insecticide significantly affected adult survival or clutch size
- Endocrine disruption activity [3]: shows endocrine disruption activity in Daphnia
- Morphological abnormalities [3]: Neither insecticide caused morphological abnormalities
- Regression line, sex ratio index (Y) vs log ppb dieldrin (X) [3]: Y=-0.0195X+0.299
- Concentration below which little or no effect on population growth rate [8]: about 220 ppb
- Effect versus controls (sex ratio, males) [5]: no difference

Compound: nonylphenol
- Mortality [9]: 100%
- Estrogenicity [10]: estrogenic to fish, mammals and birds
- Live young with deformity [11]: 11%
- Population growth rate r [11]: nonlinear pattern
- Survival [11]: low survival
- Developmental deformity [12]: cause a characteristic deformity
- No-observed effect concentration (NOEC) [13]: 24 μgL-L^-1
- Chronic LC50 ([14]; 168 h): 120 µg/L
- Chronic LC50 ([14]; 336 h): 120 µg/L
- Chronic LC50 ([14]; 504 h): 100 µg/L
